Consider eight compounds from US12325696B2, “Indazole derivative, preparation method therefor, and pharmaceutical application thereof” (JIANGSU HENGRUI MEDICINE CO., LTD., priority 2019, dated 2025).

Assay type in all cases: cell-based
The test system of assay [1] is estrogen receptor reporter gene. In words: Inhibition of estrogen receptor reporter gene activity (ERE-luc luciferase) in MCF7/ERE-luc cells. Conditions: Homo sapiens, 0.1 nM β-estradiol, 20 hours, read-out: IC50 of inhibitory activity on the activity of the estrogen receptor reporter gene. As for the experimental part: MCF7 cells MCF7/ERE-luc (ATCC, HTB-22) expressing the luciferase reporter gene ERE-luc (synthesized by GENEWIZ, Inc.) controlled by the estrogen receptor response element were cultured in MEM (GE Healthcare, SH30024.01) medium containing 10% fetal bovine serum and 500 µg/ml G418. On the first day of the experiment, MCF7/ERE-luc cells were seeded in a 96-well plate with incomplete MEM medium containing 10% fetal bovine serum treated with activated charcoal (BioSun, BS-0004-500) at a density of 30,000 cells/well (100 μl of cell suspension per well), and the plate was incubated in a cell incubator at 37° C. and 5% CO2 overnight. On the second day, 10 μl of β-estradiol (SIGMA, E2758-250MG) solution formulated with the above incomplete medium or test compound solution of different concentrations formulated with the above incomplete medium was added to each well, wherein the final concentration of β-estradiol was 0.1 nM, and the final concentrations of the compound were nine concentration points obtained by a 10-fold gradient dilution starting from 10 μM, a blank control containing 0.5% DMSO was set, and the plate was incubated in a cell incubator at 37° C. and 5% CO2 for 20 hours. On the third day, the 96-well plate was taken out, and 100 μl of ONE-Glo™ Luciferase Assay system (Promega, E6110) was added to each well to determine the activity of luciferase. The plate was left to stand at room temperature for 3 minutes until the cells were fully lysed, and the luminescence signal values were measured using a multi-label microplate reader (PerkinElmer, VICTOR 3). The IC50 values of the inhibitory activity of the compounds were calculated using Graphpad Prism software based on the concentrations and luminescence signal values of the compounds.
The inhibitory effect of the compounds of the present disclosure on the activity of the estrogen receptor reporter gene was determined by the above test. A graph of the chemiluminescence signal values versus the logarithmic concentrations of the compound was made using Graghpad Prism.

The subject of a further assay is MCF7 cell. In words: Inhibition of proliferation of MCF7 cell (CellTiter-Glo, 144 hours). The note with it: Homo sapiens; for IC50: MCF7, CellTiter-Glo, read-out: IC50 of the inhibitory effect on the proliferation of MCF7 cell; for Emax: MCF7 cell proliferation, read-out: Maximum inhibition. On the procedure:
(§1) MCF7 cells (ATCC, HTB-22) were cultured in MEM (GE Healthcare, SH30024.01) complete medium containing 10% fetal bovine serum. On the first day of the experiment, MCF7 cells were seeded in a 96-well plate with the complete medium at a density of 3,000 cells/well (100 μl of cell suspension per well), and the plate was incubated in a cell incubator at 37° C. and 5% CO2 overnight. On the second day, the medium in each well was replaced with 135 μl of MEM incomplete medium containing 2% fetal bovine serum. 15 μl of test compound solution of different concentrations formulated with the incomplete medium was added to each well, wherein the final concentrations of the compound were nine concentration points obtained by a 4-fold gradient dilution starting from 100 nM. A blank control containing 0.5% DMSO was set. The plate was incubated in a cell incubator at 37° C. and 5% CO2 for 144 hours. On the eighth day, the 96-well plate was taken out, and 150 μl of CellTiter-Glo® Luminescent Cell Viability Assay (Promega, G7573) was added to each well. The plate was left to stand at room temperature for 10 minutes, and the luminescence signal values were measured using a multi-label microplate reader (PerkinElmer, VICTOR 3). The IC50 values of the inhibitory activity of the compounds were calculated based on the concentrations and luminescence signal values of the compounds using Graphpad Prism software.
A graph of the chemiluminescence signal values versus the logarithmic concentrations of the compound was made using Graghpad Prism to obtain the IC50 values of the compound.
(Cellular ATP, detected with luciferase, serves as a proxy for viable cell number.)

The test system of another assay is MCF7 D538G. In words: Inhibition of proliferation of MCF7 cell expressing ERα D538G mutant. Conditions: Homo sapiens, 144 hours; for Emax: read-out: Maximum inhibition.
Text: (§2) The mutants ERα Y537S and ERα D538G of human estrogen receptor α (ERαs) protein were obtained by site-directed mutagenesis using the cDNA of wild-type ESR1 gene (Accession No. NM000125) as a template according to double-primer PCR. The primer sequences used for mutagenesis are as follows (the nucleotides underlined are the sites of mutagenesis):
(§3) The cDNA of mutant ESR1 was cloned into the target lentiviral vector pCDH-CMV-MCS-EF1-Puro (SBI, CD510B-1). The lentiviral plasmid with the mutant ESR1 gene sequence and the lentiviral packaging plasmids pVSV-G and pCMV-dR8.91 (SBI, LV500A-1) were transfected into HEK-293T cells (ATCC, CRL-3216) by Lipofectamine 3000 Transfection Reagent (ThermoFisher Scientific, Cat #L3000075). 48 hours after the transfection, the supernatant of the virus-containing DMEM high-glycemic medium (GE Healthcare, SH30243.01) containing 10% FBS was filtered, and ultracentrifuged to obtain the virus pellet. The virus pellet was resuspended in an appropriate amount of MEM medium (GE Healthcare, SH30024.01) containing 10% FBS, non-essential amino acids (SIGMA, M7145-100ML) and sodium pyruvate (SIGMA, S8636-100ML), and the resulting suspension was added to MCF7 cells (ATCC, HTB-22). Polybrene (SIGMA, H9268-5G) at a final concentration of 8 µg/ml was added, and the cells were incubated overnight. Two days after the transfection, […] puromycin (invitrogen, A11138-03) was added to the cell culture medium for resistance screening. After about two weeks, the MCF7 cell line capable of stably expressing ERαY537S and ERα D538G mutants was obtained.
as §1, with “MCF7 cells expressing ERα mutant were cultured” for “MCF7 cells (ATCC, HTB-22) were cultured”, “the experiment, the cells were” for “the experiment, MCF7 cells were”, “control containing 0.500 DMSO was” for “control containing 0.5% DMSO was”, “C. and […] for” for “C. and 5% CO2 for”, “and 150 of CellTiter-Glo®” for “and 150 μl of CellTiter-Glo®”

The next assay relates to MCF7 ERαY537S. In words: Inhibition of proliferation of MCF7 cell expressing ERα Y537S mutant. Conditions: Homo sapiens, 144 hours; for Emax: read-out: Maximum inhibition.
Text: as §2, §3
as §1, with “MCF7 cells expressing ERα mutant were cultured” for “MCF7 cells (ATCC, HTB-22) were cultured”, “the experiment, the cells were” for “the experiment, MCF7 cells were”, “control containing 0.500 DMSO was” for “control containing 0.5% DMSO was”, “C. and […] for” for “C. and 5% CO2 for”, “and 150 of CellTiter-Glo®” for “and 150 μl of CellTiter-Glo®”

With `O=C(/C=C/CNC1(COc2ccc(/C(=C(/CC(F)(F)F)c3ccccc3)c3ccc4[nH]nc(F)c4c3)cn2)CC1)N1CCCCC1` [Example 3, (E)-1-(Piperidin-1-yl)-4-((1-(((5-((Z)-4,4,4-trifluoro-1-(3-fluoro-1H-indazol-5-yl)-2-phenylbut-1-en-1-yl)pyridin-2-yl)oxy)methyl)cyclopropyl)amino)but-2-en-1-one], the IC50 in assay [1] came out at 4 nM; in the assay with MCF7 cell it was 2 nM; in the assay with MCF7 D538G it was 9 nM; in the assay on MCF7 ERαY537S, 9 nM. The Emax with MCF7 cell came out at 101%; in the assay with MCF7 D538G it was 96%; with MCF7 ERαY537S, 93%.

`O=C(/C=C/CNC1(COc2ccc(/C(=C(/CC(F)(F)F)c3ccccc3)c3ccc4[nH]nc(F)c4c3)cn2)CC1)N1CCNCC1` [Example 4, (E)-1-(Piperazin-1-yl)-4-((1-(((5-((Z)-4,4,4-trifluoro-1-(3-fluoro-1H-indazol-5-yl)-2-phenylbut-1-en-1-yl)pyridin-2-yl)oxy)methyl)cyclopropyl)amino)but-2-en-1-one]: the IC50 in assay [1] is 4 nM; in the assay on MCF7 cell, 1.5 nM; with MCF7 D538G, 10 nM; in the assay with MCF7 ERαY537S, 11 nM. The Emax worked out at 113% with MCF7 cell, 105% in the assay with MCF7 D538G and 101% with MCF7 ERαY537S.

Regarding `CN(C)C(=O)/C=C/CN(C)C1(COc2ccc(/C(=C(/CC(F)(F)F)c3ccccc3)c3ccc4[nH]nc(F)c4c3)cn2)CC1` [Example 5, (E)-N,N-Dimethyl-4-(methyl(1-(((5-((Z)-4,4,4-trifluoro-1-(3-fluoro-1H-indazol-5-yl)-2-phenylbut-1-en-1-yl)pyridin-2-yl)oxy)methyl)cyclopropyl)amino)but-2-enamide], the IC50 in assay [1] came out at 3 nM; with MCF7 cell, 0.1 nM; in the assay with MCF7 D538G, 0.2 nM; with MCF7 ERαY537S, 0.3 nM. The Emax in the assay with MCF7 cell turned out to be 96%; with MCF7 D538G it was 98%; in the assay with MCF7 ERαY537S it was 107%.

As to `CCN(C/C=C/C(=O)N(C)C)C1(COc2ccc(/C(=C(/CC(F)(F)F)c3ccccc3)c3ccc4[nH]nc(F)c4c3)cn2)CC1` [Example 6, (E)-4-(Ethyl(1-(((5-((Z)-4,4,4-trifluoro-1-(3-fluoro-1H-indazol-5-yl)-2-phenylbut-1-en-1-yl)pyridin-2-yl)oxy)methyl)cyclopropyl)amino)-N,N-dimethylbut-2-enamide], the IC50 is 0.5 nM in assay [1], 0.15 nM with MCF7 cell, 0.5 nM in the assay with MCF7 D538G and 1 nM in the assay on MCF7 ERαY537S. In addition, the Emax was found to be 94% with MCF7 cell, 98% in the assay on MCF7 D538G and 102% with MCF7 ERαY537S.

Consider `CN(C)C(=O)/C=C/CNC1(COc2ccc(/C(=C(/CC(F)(F)F)c3ccccc3)c3ccc4[nH]nc(F)c4c3)cn2)CCCC1` [Example 7, (E)-N,N-Dimethyl-4-((1-(((5-((Z)-4,4,4-trifluoro-1-(3-fluoro-1H-indazol-5-yl)-2-phenylbut-1-en-1-yl)pyridin-2-yl)oxy)methyl)cyclopentyl)amino)but-2-enamide], for which the IC50 amounted to 38 nM in assay [1], 2 nM with MCF7 cell, 12 nM in the assay with MCF7 D538G and 12 nM in the assay with MCF7 ERαY537S. The Emax was 102% in the assay with MCF7 cell, 84% in the assay on MCF7 D538G and 88% with MCF7 ERαY537S.

Regarding `CN(C)C(=O)/C=C/CN1CCC(Oc2ccc(/C(=C(/CC(F)(F)F)c3ccccc3)c3ccc4[nH]nc(F)c4c3)cn2)CC1` [Example 9, (E)-N,N-Dimethyl-4-(4-((5-((Z)-4,4,4-trifluoro-1-(3-fluoro-1H-indazol-5-yl)-2-phenylbut-1-en-1-yl)pyridin-2-yl)oxy)piperidin-1-yl)but-2-enamide], the IC50 in assay [1] turned out to be 2 nM; in the assay with MCF7 cell, 0.1 nM; with MCF7 D538G, 0.8 nM; with MCF7 ERαY537S, 2 nM. The Emax in the assay with MCF7 cell was found to be 110%; in the assay on MCF7 D538G, 108%; in the assay with MCF7 ERαY537S, 94%.

As for `CC#CC(=O)N1CCC(Oc2ccc(/C(=C(/CC(F)(F)F)c3ccccc3)c3ccc4[nH]nc(F)c4c3)cn2)CC1` [Example 10, (Z)-1-(4-((5-(4,4,4-Trifluoro-1-(3-fluoro-1H-indazol-5-yl)-2-phenylbut-1-en-1-yl)pyridin-2-yl)oxy)piperidin-1-yl)but-2-yn-1-one], the IC50 in assay [1] worked out at 8 nM; in the assay with MCF7 cell, 0.3 nM; in the assay with MCF7 D538G it was 4 nM; in the assay with MCF7 ERαY537S, 7 nM. In addition, the Emax came to 104% in the assay with MCF7 cell, 104% in the assay with MCF7 D538G and 86% in the assay with MCF7 ERαY537S.

Consider `CNC(=O)/C=C/CN1CCC[C@@H](Oc2ccc(/C(=C(/CC(F)(F)F)c3ccccc3)c3ccc4[nH]nc(F)c4c3)cn2)C1` [Example 11, (E)-N-Methyl-4-((R)-3-((5-((Z)-4,4,4-trifluoro-1-(3-fluoro-1H-indazol-5-yl)-2-phenylbut-1-en-1-yl)pyridin-2-yl)oxy)piperidin-1-yl)but-2-enamide], for which the IC50 in assay [1] was determined as 3 nM; with MCF7 cell it was 0.5 nM; with MCF7 D538G, 1 nM; in the assay on MCF7 ERαY537S, 2 nM. Also, the Emax with MCF7 cell was determined as 110%; with MCF7 D538G it was 100%; in the assay with MCF7 ERαY537S, 107%.
